Results published in patent US9309263B2, “Fused multi-cyclic sulfone compounds as inhibitors of beta-secretase and methods of use thereof” (AMGEN INC., priority 2013, dated 2016).
pIC50: −log10 of the molar value. Like-named read-outs stand apart in the source and are kept apart here.

What was measured:
[1] = target: Beta Secretase enzyme (BACE) (Homo sapiens, UniProt P56817); assay: In vitro enzymatic BACE FRET assay; assay type: biochemical; conditions: read-out: BACE1 FRET assay IC50
Description: In Vitro Enzymatic BACE FRET (Fluorescence Resonance Energy Transfer) Assay (Enzyme Assay Data in the Example Table I)
The assay buffer used in this screen is 0.05 M acetate, pH 4.2, 10% DMSO final, 100 uM genapol (which is a nonionic detergent, below its Critical Micelle Concentration). The Beta Secretase enzyme (0.2 nM) is pre-incubated for one hour with inhibitors, typically in about 1 uL of DMSO according to a serial dilution, are added thereto. This assay is effectively started by the addition of FRET substrate (50 nM) and the combination is incubated for one hour. The FRET assay is terminated with by addition of Tris buffer, which raises the pH to neutrality, and the fluorescence is determined. The FRET substrate is a peptide with commercially available fluorophore and quencher, on opposite sides of the BACE cleavage site. Proteolytic cleavage of the FRET substrate releases quenching of fluorescence (excitation 488 nm and […]).

[2] = tested on: Aβ 40 in conditioned medium of cells stably expressing Amyloid Precursor Protein (APP); assay: In vitro BACE cell-based assay (Aβ 40 sandwich ELISA); conditions: Homo sapiens, HEK293
Description: In Vitro BACE Cell-Based Assay
The cell-based assay measures inhibition or reduction of […] in conditioned medium of test compound treated cells expressing amyloid precursor protein.
Cells stably expressing Amyloid Precursor Protein (APP) were plated at a density of 40K cells/well in 96 well plates (Costar). The cells were cultivated for 24 hours at 37° C. and 5% CO2 in DMEM supplemented with 10% FBS. The test compounds were then added to cells in 10-point dose response concentrations with the starting concentration being either 100 μM or 10 μM. The compounds were diluted from stock solutions in DMSO and the final DMSO concentration of the test compounds on cells was 0.1%. After 24 h of incubation with the test compounds the supernatant conditioned media was collected and the Aβ 40 levels were determined using a sandwich ELISA. The IC50 of the compound was calculated from the percent of control or percent inhibition of Aβ 40 as a function of the concentration of the test compound.
The sandwich ELISA to detect Aβ 40 was performed in 96 well microtiter plates, which were pre-treated with goat anti-rabbit IgG (Pierce). The capture and detecting antibody pair that were used to detect Aβ 40 from cell supernatants were affinity purified pAb40 (Biosource) and biotinylated 6E10 (Signet Labs Inc.), respectively. The optimal concentration for the pAb40 antibody was 3 μg/ml in Superblock/TBS (Pierce) that was supplemented with 0.05% Tween 20 (Sigma). Optimal concentration for the detection antibody 6E10-biotinylated was 0.5 μg/ml in Superblock/TBS (Pierce) that had been supplemented with 2% normal goat serum and 2% normal mouse serum.
Cellular supernatants were incubated with the capture antibody for 3 h at 4° C., followed by 3 wash steps in TBS-tween (0.05%). The detecting antibody incubation was for 2 h at 4° C., again followed by the wash steps as described previously. The final readout of the ELISA is Time-Resolved Fluorescence (counts per minute) using Delfia reagents Streptavidin-Europium and Enhancement solutions (Perkin Elmer) and the Victor 2 multilabel counter (Perkin Elmer).

Cathepsin D (Cat D) = Cathepsin D (Cat D) (Homo sapiens, UniProt P07339); assay: In vitro enzymatic Cathepsin D (Cat D) FRET assay; assay type: biochemical
Cathepsin D (Cat D), sequence (P07339 65-412, species assumed): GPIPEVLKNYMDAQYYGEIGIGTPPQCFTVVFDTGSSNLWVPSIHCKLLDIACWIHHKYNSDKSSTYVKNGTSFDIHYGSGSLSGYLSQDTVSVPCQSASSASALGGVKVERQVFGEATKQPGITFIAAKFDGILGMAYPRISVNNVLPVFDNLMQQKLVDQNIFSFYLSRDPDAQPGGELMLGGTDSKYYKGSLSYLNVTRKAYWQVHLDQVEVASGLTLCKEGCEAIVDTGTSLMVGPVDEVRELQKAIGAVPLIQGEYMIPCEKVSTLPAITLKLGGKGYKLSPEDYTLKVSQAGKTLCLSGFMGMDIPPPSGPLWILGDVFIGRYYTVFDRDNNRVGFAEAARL
Description: In Vitro Enzymatic Cathepsin D (Cat D) FRET (Fluorescence Resonance Energy Transfer) Assay
Recombinant Cat D was expressed in CHO cells. The assay buffer for CathepsinD is 0.05 M citrate pH 3.5, 10% DMSO final, 5 mM CHAPS. The Cat D enzyme (9 nM) is pre-incubated for one hour with inhibitors, typically in about 1 uL of DMSO according to a serial dilution, is added thereto. The assays are effectively started by the addition of different FRET substrates (20 nM for Cat D) and the combination is incubated for one hour. The FRET assay is terminated with by addition of Tris buffer, which raises the pH to neutrality, and the fluorescence is determined. The FRET substrate is a peptide with commercially available fluorophore and quencher, on opposite sides of the BACE cleavage site. The Cat D substrate peptide sequence is based on sequence #1 of Table 1 from Gulnik et al. FEBS Letters v413 p 379-384 1997. Proteolytic cleavage of the FRET substrate releases quenching of fluorescence (Cat D excitation 500 nm and emission 580 nm). […]
See, for instance, examples 8, 12, 15, 16, 18, 21-23, 24, 25, 26, 29, 30, 32, 41-42, 45, 53, 54, 57, 63, 67-69, 72-74, 76, 79-81, 83 & 84 (to point to just a few; referring to data in Table 2). […] See, for instance, examples 8, 12, 15, 18, 21-23, 25, 29, 30, 32, 41-42, 45, 54, 57, 67-68, 72-73, 76, 80-81, 84, 86, 91-92 & 100 (to point out those from compound examples 1-100; and with reference to data in Table 2).

[3] = average IC50, in vitro enzymatic BACE FRET assay
[4] = average IC50, HEK cell assay, Aβ 40 readout
[5] = Cathepsin D FRET assay, read-out: CatD IC50
[6] = text summary referring to data in Table 2

Beta Secretase enzyme (BACE), sequence (P56817 46-501): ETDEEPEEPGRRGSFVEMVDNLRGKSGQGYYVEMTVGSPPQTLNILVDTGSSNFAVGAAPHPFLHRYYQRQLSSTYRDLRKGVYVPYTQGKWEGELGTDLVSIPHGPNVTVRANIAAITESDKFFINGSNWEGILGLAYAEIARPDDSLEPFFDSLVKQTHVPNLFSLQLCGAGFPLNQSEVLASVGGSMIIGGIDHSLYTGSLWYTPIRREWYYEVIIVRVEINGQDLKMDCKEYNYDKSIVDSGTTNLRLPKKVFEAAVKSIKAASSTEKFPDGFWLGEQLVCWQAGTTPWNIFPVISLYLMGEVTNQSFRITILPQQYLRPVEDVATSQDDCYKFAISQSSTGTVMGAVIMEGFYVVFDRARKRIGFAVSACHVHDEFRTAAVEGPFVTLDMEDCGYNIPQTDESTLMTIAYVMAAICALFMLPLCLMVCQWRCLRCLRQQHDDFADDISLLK

Compound: CC1(C)C(N)=N[C@]2(C)c3cc(NC(=O)c4ccc(OCC(F)F)cn4)ccc3OCC[C@H]2S1(=O)=O [Example 96, N-((4aR,11bR)-2-amino-3,3,11b-trimethyl-4,4-dioxido-4a,5,6,11b-tetrahydro-3H-[1]benzoxepino[4,5-b][1,4]thiazin-10-yl)-5-(2,2-difluoroethoxy)-2-pyridinecarboxamide]
- pIC50 [1, 3]: 7.48
- pIC50 [2, 4]: 7.01
- pIC50 (Cathepsin D (Cat D); [5]): 2.93

Compound: Cc1cc(Cl)cnc1C(=O)Nc1ccc2c(c1)[C@@]1(C)N=C(N)C(C)(C)S(=O)(=O)[C@H]1CCS2 [Example 115, N-((4aS,11bR)-2-amino-3,3,11b-trimethyl-4,4-dioxido-4a,5,6,11b-tetrahydro-3H-[1]benzothiepino[4,5-b][1,4]thiazin-10-yl)-5-chloro-3-methyl-2-pyridinecarboxamide]
- pIC50 [1, 3]: 8.22
- pIC50 [2, 4]: 7.92
- pIC50 (Cathepsin D (Cat D); [5]): 3.56

Compound: Cc1cc(Cl)cnc1C(=O)Nc1ccc2c(c1)[C@@]1(C)N=C(N)C(C)(C)S(=O)(=O)[C@@]1(C)CCO2 [Example 26, N-((4aS,11bR)-2-amino-3,3,4a,11b-tetramethyl-4,4-dioxido-4a,5,6,11b-tetrahydro-3H-[1]benzoxepino[4,5-b][1,4]thiazin-10-yl)-5-chloro-3-methyl-2-pyridinecarboxamide]
- pIC50 ([1]; average IC50): 8.52
- pIC50 ([2]; HEK cell, average IC50): 9.00
- pIC50 (Cathepsin D (Cat D); read-out: CatD IC50): 3.00
- pIC50 (Cathepsin D (Cat D); [6]): < 3.10

Compound: Cc1cc(C(F)(F)F)cnc1C(=O)Nc1ccc2c(c1)[C@@]1(C)N=C(N)C(C)(C)S(=O)(=O)[C@@H]1CC(C)(C)O2 [Example 113, N-((4aR,11bR)-2-amino-3,3,6,6,11b-pentamethyl-4,4-dioxido-4a,5,6,11b-tetrahydro-3H-[1]benzoxepino[4,5-b][1,4]thiazin-10-yl)-3-methyl-5-(trifluoromethyl)-2-pyridinecarboxamide]
- pIC50 [1, 3]: 8.22
- pIC50 [2, 4]: 8.70
- pIC50 (Cathepsin D (Cat D); [5]): 2.92

Compound: Cc1cc(OC(F)F)cnc1C(=O)Nc1ccc2c(c1)[C@@]1(C)N=C(N)C(C)(C)S(=O)(=O)[C@@H]1CCO2 [Example 157, N-((4aR,11bR)-2-amino-3,3,11b-trimethyl-4,4-dioxido-4a,5,6,11b-tetrahydro-3H-[1]benzoxepino[4,5-b][1,4]thiazin-10-yl)-5-(difluoromethoxy)-3-methyl-2-pyridinecarboxamide]
- pIC50 [1, 3]: 8.70
- pIC50 [2, 4]: 8.52
- pIC50 (Cathepsin D (Cat D); [5]): 2.92

Compound: COc1cnc(C(=O)Nc2ccc3c(c2)[C@@]2(C)N=C(N)C(C)(C)S(=O)(=O)[C@@H]2CCO3)c(C)n1 [Example 22, N-((4aR,11bR)-2-amino-3,3,11b-trimethyl-4,4-dioxido-4a,5,6,11b-tetrahydro-3H-[1]benzoxepino[4,5-b][1,4]thiazin-10-yl)-5-methoxy-3-methyl-2-pyrazinecarboxamide]
- pIC50 ([1]; average IC50): 7.77
- pIC50 ([2]; HEK cell, average IC50): 8.15
- pIC50 (Cathepsin D (Cat D); read-out: CatD IC50): 2.91

Compound: Cc1cc(C#CC2CC2)cnc1C(=O)Nc1ccc2c(c1)[C@@]1(C)N=C(N)C(C)(C)S(=O)(=O)[C@@H]1CCO2 [Example 83, N-((4aR,11bR)-2-amino-3,3,11b-trimethyl-4,4-dioxido-4a,5,6,11b-tetrahydro-3H-[1]benzoxepino[4,5-b][1,4]thiazin-10-yl)-5-(cyclopropylethynyl)-3-methyl-2-pyridinecarboxamide]
- pIC50 [1, 3]: 8.22
- pIC50 [2, 4]: 8.05
- pIC50 (Cathepsin D (Cat D); [5]): 3.02
- pIC50 (Cathepsin D (Cat D); [6]): < 3.10

Compound: CC1(C)C(N)=N[C@]2(CF)c3cc(NC(=O)c4cnc(C(F)(F)F)cn4)ccc3OCC[C@H]2S1(=O)=O [Example 121, N-((4aR,11bS)-2-amino-11b-(fluoromethyl)-3,3-dimethyl-4,4-dioxido-4a,5,6,11b-tetrahydro-3H-[1]benzoxepino[4,5-b][1,4]thiazin-10-yl)-5-(trifluoromethyl)-2-pyrazinecarboxamide]
- pIC50 [1, 3]: 6.74
- pIC50 [2, 4]: 6.68
- pIC50 (Cathepsin D (Cat D); [5]): 3.00

Compound: COc1cnc(C(=O)Nc2ccc3c(c2)[C@@]2(C)N=C(N)C(C)(C)S(=O)(=O)[C@@H]2CCO3)c(Cl)c1 [Example 173, N-((4aR,11bR)-2-amino-3,3,11b-trimethyl-4,4-dioxido-4a,5,6,11b-tetrahydro-3H-[1]benzoxepino[4,5-b][1,4]thiazin-10-yl)-3-chloro-5-methoxy-2-pyridinecarboxamide]
- pIC50 ([1]; average IC50): 8.30
- pIC50 ([2]; HEK cells, average IC50): 8.15
- pIC50 (Cathepsin D (Cat D); read-out: CatD IC50): < 3.40

Compound: CC1(C)C(N)=N[C@]2(C)c3cc(NC(=O)c4ccc(Cl)cn4)ccc3OCC[C@H]2S1(=O)=O [Example 186, N-((4aR,11bR)-2-amino-3,3,11b-trimethyl-4,4-dioxido-4a,5,6,11b-tetrahydro-3H-[1]benzoxepino[4,5-b][1,4]thiazin-10-yl)-5-chloro-2-pyridinecarboxamide]
- pIC50 ([1]; average IC50): 8.22
- pIC50 ([2]; HEK cells, average IC50): 8.00
- pIC50 (Cathepsin D (Cat D); read-out: CatD IC50): 3.55

Compound: Cc1cc(Cl)cnc1C(=O)Nc1ccc2c(c1)[C@@]1(C)N=C(N)C(C)(C)S(=O)(=O)[C@@]1(F)CCO2 [Example 87, N-((4aS,11bR)-2-amino-4a-fluoro-3,3,11b-trimethyl-4,4-dioxido-4a,5,6,11b-tetrahydro-3H-[1]benzoxepino[4,5-b][1,4]thiazin-10-yl)-5-chloro-3-methyl-2-pyridinecarboxamide]
- pIC50 [1, 3]: 8.70
- pIC50 [2, 4]: 8.10
- pIC50 (Cathepsin D (Cat D); [5]): 3.55

Compound: Cc1cc(C#N)cnc1C(=O)Nc1ccc2c(c1)[C@@]1(CF)N=C(N)C(C)(C)S(=O)(=O)[C@H]1CCO2 [Example 153, N-((4aS,11bS)-2-amino-11b-(fluoromethyl)-3,3-dimethyl-4,4-dioxido-4a,5,6,11b-tetrahydro-3H-[1]benzoxepino[4,5-b][1,4]thiazin-10-yl)-5-cyano-3-methyl-2-pyridinecarboxamide]
- pIC50 [1, 3]: 8.70
- pIC50 [2, 4]: 8.22
- pIC50 (Cathepsin D (Cat D); [5]): 2.68

Compound: Cc1c(C(=O)Nc2ccc3c(c2)[C@@]2(C)N=C(N)C(C)(C)S(=O)(=O)[C@@H]2C[C@H](C)O3)nc2ccc(Cl)cn12 [Example 77, N-((4aR,6S,11bR)-2-amino-3,3,6,11b-tetramethyl-4,4-dioxido-4a,5,6,11b-tetrahydro-3H-[1]benzoxepino[4,5-b][1,4]thiazin-10-yl)-6-chloro-3-methylimidazo[1,2-a]pyridine-2-carboxamide]
- pIC50 ([1]; average IC50): 7.77
- pIC50 ([2]; HEK cell, average IC50): 8.30
- pIC50 (Cathepsin D (Cat D); read-out: CatD IC50): 3.40

Compound: CC1(C)C(N)=N[C@]2(C)c3cc(Nc4nccc5cc(C#N)cnc45)ccc3CCC[C@H]2S1(=O)=O [Example 47, 8-(((4aR,11bR)-2-amino-3,3,11b-trimethyl-4,4-dioxido-3,4a,5,6,7,11b-hexahydrobenzo[3,4]cyclohepta[1,2-b][1,4]thiazin-10-yl)amino)-1,7-naphthyridine-3-carbonitrile]
- pIC50 ([1]; average IC50): 8.10
- pIC50 ([2]; HEK cell, average IC50): 7.38
- pIC50 (Cathepsin D (Cat D); read-out: CatD IC50): 3.47
